Measured values reported in ChEMBL document CHEMBL1142282, “Asymmetric synthesis and stereochemical structure-activity relationship of (R)- and (S)-8-[1-(2,4-dichlorophenyl)-2-imidazol-1-yl-ethoxy] octanoic acid heptyl ester, a potent inhibitor of allene oxide synthase” (Bioorg Med Chem, 2008).

How the values were obtained:
[1] = Binding affinity at arabidopsis recombinant allene oxide synthase
Arabidopsis = assay: Inhibition of arabidopsis recombinant allene oxide synthase at 1 uM
[2] = Inhibition of arabidopsis recombinant allene oxide synthase; conditions: read-out: I50

Row | Kd [1] [nM] | inhibition (Arabidopsis) [%] | IC50 [2] [nM] | Compound
1 | 4800 | 50 | 950 | CCCCCCCOC(=O)CCCCCCCO[C@H](Cn1ccnc1)c1ccc(Cl)cc1Cl
2 | 1400 | 93 | 5 | CCCCCCCOC(=O)CCCCCCCO[C@@H](Cn1ccnc1)c1ccc(Cl)cc1Cl
